Patent US8445636B2, “Antimicrobial and anticancer lipopeptides” (Yeda Research & Development Co. Ltd., priority 2003, dated 2013)
Values after ≈ are worked out from the molar mass of the structure shown. Read-outs that look alike come from different tables or passages of the source. Non-standard residues stand in square brackets, D forms with d. Residues, ends and D or L forms follow the SMILES beside them. *: point of attachment. Palmitoyl = CCCCCCCCCCCCCCCC(=O)*; Undecanoyl = CCCCCCCCCCC(=O)*; Lauroyl = CCCCCCCCCCCC(=O)*

Experiments:
Assay type in all cases: cell-based
[1] = tested on: human red blood cells (hRBC); experiment: Hemolytic activity, release of hemoglobin at 540 nm; settings: for % of Hemolytic activity at maximal MIC: human
Experimental: Fresh human red blood cells (hRBC) with EDTA were rinsed 3 times with PBS (35 mM phosphate buffer/0.15 M NaCl, pH 7.3) by centrifugation for 10 min at 800 g and resuspended in PBS. Peptides dissolved in PBS were then added to 50 μl of a solution of the stock hRBC in PBS to reach a final volume of 100 μl (final erythrocyte concentration, 4% v/v). The resulting suspension was incubated under agitation for 60 min at 37° C. The samples were then centrifuged at 800×g for 10 min. Release of hemoglobin was monitored by measuring the absorbance of the supernatant at 540 nm. Controls for zero hemolysis (blank) and 100% hemolysis consisted of hRBC suspended in PBS and Triton 1%, respectively.

[2] = tested on: Pseudomonas aeruginosa ATCC 27853
Experimental: (§1) The antibacterial activity of the lipopeptides was examined in sterile 96-well plates (Nunc F96 microtiter plates) in a final volume of 100 μl as follows: Aliquots (50 μl) of a suspension containing bacteria at concentration of 1×10^6 Colony-Forming Units (CFU)/ml in culture LB (Lauria broth) medium (pH 7.4 or pH 5.5) were added to 50 μl of water containing the lipopeptide in serial 2-fold dilutions in water. Adjustment of the pH was done by diluted solutions of HCl and NaOH Inhibition of growth was determined by measuring the absorbance at 600 nm with a Microplate autoreader E1309 (Bio-Tek Instruments), after an incubation time of 18-20 h at 37° C. Antibacterial activities were expressed as the minimal inhibitory concentration (MIC), the concentration at which 100% inhibition of growth was observed after 18-20 h of incubation. The bacteria used were: Escherichia coli ATCC 25922, Acinetobacter baumannii ATCC 19606, Pseudomonas aeruginosa ATCC 27853, Staphylococcus aureus ATCC 6538P, Enterococcus faecalis ATCC 29212, Enterobacter cloacae ATCC 49141. The antibacterial activity of lipopeptides was also examined against resistant bacteria: methicilin-resistant Staphylococcus aureus (MRSA) ATCC 700698 and vancomycin-resistant Enterococcus faecium (VRE) ATCC 700221. If not indicated otherwise, the bacterial growth was detected at pH 7.4.

[3] = tested on: Escherichia coli ATCC 25922
Experimental: as §1

[4] = tested on: Staphylococcus aureus ATCC 6538P
Experimental: as §1

B. subtilis ATCC 6051 = settings: ATCC 6051
[5] = tested on: Aspergillus fumigatus ATCC 26430; experiment: microbe, parasite or virus in culture
[6] = tested on: Candida albicans ATCC 10231; experiment: microbe, parasite or virus in culture; settings: for MIC: ATCC 10231, read-out: Minimal Inhibitory Concentration, Candida Albicans (ATCC 10231)
Outline: (§2)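 Broth microdilution in RPMI 1640/0.165 M MOPS, 1×10^4 CFU/ml inoculum, 2-fold serial lipopeptide dilutions in water, pH 7.4 unless stated (pH 5.5 alternative). Incubated 24–48 h at 35 °C with agitation; growth read at A620. MIC = lowest concentration giving 100% growth inhibition.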

[7] = tested on: Cryptococcus neoformans ATCC MYA-422; experiment: microbe, parasite or virus in culture; settings: Table 17, D-magainin analog; mean of 3 experiments, standard deviation of 25%; read-out: Minimal Inhibitory Concentration, Cyrptococcus neoformans (ATCC MYA-422)
[8] = tested on: Enterobacter cloacae ATCC 49141
Experimental: as §1

[9] = tested on: Acinetobacter baumannii ATCC 19606
Experimental: as §1

[10] = tested on: Enterococcus faecalis ATCC 29212
Experimental: as §1

[11] = tested on: Cryptococcus neoformans ATCC 66031; experiment: microbe, parasite or virus in culture
Outline: as §2

[12] = tested on: methicilin-resistant Staphylococcus aureus (MRSA) ATCC 700698
Experimental: as §1

In the case of `CCCCCCCCCCCCCCCC(=O)NCC(=O)N[C@H](C(=O)NCC(=O)N[C@@H](CCCCN)C(=O)N[C@@H](Cc1ccccc1)C(=O)N[C@H](CC(C)C)C(=O)N[C@@H](Cc1c[nH]cn1)C(=O)N[C@@H](CO)C(=O)N[C@@H](C)C(=O)N[C@H](CCCCN)C(=O)N[C@@H](CCCCN)C(=O)N[C@@H](Cc1c[nH]c2ccccc12)C(=O)NCC(=O)N[C@@H](CCCCN)C(=O)N[C@@H](C)C(=O)N[C@H](Cc1ccccc1)C(=O)N[C@H](C(=O)NCC(=O)N[C@H](CCC(=O)O)C(=O)N[C@H](C(=O)N[C@@H](CCSC)C(=O)N[C@@H](CC(N)=O)C(=O)N[C@@H](CO)C(N)=O)[C@@H](C)CC)C(C)C)[C@@H](C)CC` [[D]4magainin-PA] (Palmitoyl-GIGKF[dL]HSA[dK]KWGKA[dF]VG[dE]IMNS-NH2), the “% of Hemolytic activity at maximal MIC” value [1] is reported as 8%, the “Minimal Inhibitory Concentration, P. aeruginosa ATCC 27853” value [2] is reported as >50 µM and the “Minimal Inhibitory Concentration, E. coli (ATCC 25922)” value [3] is reported as >50 µM. The “Minimal Inhibitory Concentration, S. aureus ATCC 6538P” value [4] was >50 µM, the “Minimal Inhibitory Concentration, B. subtilis (ATCC 6051)” value (B. subtilis ATCC 6051) was 50 µM and the “Minimal Inhibitory Concentration, Aspergillus fumigatus (ATCC 26430)” value [5] was >50 µM. The MIC [6] was >50 µM and the MIC [7] was 6.25 µM (≈ 17.1 µg/mL).
In the case of `CCCCCCCCCCC(=O)NCC(=O)N[C@H](C(=O)NCC(=O)N[C@@H](CCCCN)C(=O)N[C@@H](Cc1ccccc1)C(=O)N[C@H](CC(C)C)C(=O)N[C@@H](Cc1c[nH]cn1)C(=O)N[C@@H](CO)C(=O)N[C@@H](C)C(=O)N[C@H](CCCCN)C(=O)N[C@@H](CCCCN)C(=O)N[C@@H](Cc1c[nH]c2ccccc12)C(=O)NCC(=O)N[C@@H](CCCCN)C(=O)N[C@@H](C)C(=O)N[C@H](Cc1ccccc1)C(=O)N[C@H](C(=O)NCC(=O)N[C@H](CCC(=O)O)C(=O)N[C@H](C(=O)N[C@@H](CCSC)C(=O)N[C@@H](CC(N)=O)C(=O)N[C@@H](CO)C(N)=O)[C@@H](C)CC)C(C)C)[C@@H](C)CC` [[D]4magainin-UA] (Undecanoyl-GIGKF[dL]HSA[dK]KWGKA[dF]VG[dE]IMNS-NH2), the “% of Hemolytic activity at maximal MIC” value [1] is reported as 2%, the “Minimal Inhibitory Concentration, P. aeruginosa ATCC 27853” value [2] is reported as 50 µM and the “Minimal Inhibitory Concentration, E. coli (ATCC 25922)” value [3] is reported as >50 µM. The “Minimal Inhibitory Concentration, S. aureus ATCC 6538P” value [4] was 50 µM, the “Minimal Inhibitory Concentration, B. subtilis (ATCC 6051)” value (B. subtilis ATCC 6051) was 6.25 µM and the “Minimal Inhibitory Concentration, Aspergillus fumigatus (ATCC 26430)” value [5] was >50 µM. The MIC [6] was >50 µM and the MIC [7] was 6.25 µM (≈ 16.7 µg/mL).
For `CCCCCCCCCCCCCCCC(=O)N[C@@H](CCCCN)C(=O)N[C@@H](C)C(=O)N[C@@H](C)C(=O)N[C@@H](C)C(=O)N[C@@H](CCCCN)C(=O)N[C@@H](C)C(=O)N[C@@H](C)C(=O)N[C@@H](C)C(=O)N[C@@H](CCCCN)C(=O)N[C@@H](C)C(=O)N[C@@H](C)C(=O)N[C@@H](CCCCN)C(N)=O` [lipopeptide 6, (CH3—(CH2)14—CO—)-Lys-Ala-Ala-Ala-Lys-Ala-Ala-Ala-Lys-Ala-Ala-Lys-NH2] (Palmitoyl-KAAAKAAAKAAK-NH2), the hemolytic activity ([1]; at concentrations lower than 12 μM, human red blood cells (FIGS. 1-5)) was “do not exhibit significant hemolytic activity”, the “Minimal Inhibitory Concentration, P. Aeruginosa” value ([2]; Table 4, pH 7.4) was 25 µM and the “Minimal Inhibitory Concentration, E. coli” value ([3]; Table 4, pH 7.4) was 50 µM. The “Minimal Inhibitory Concentration, E. cloacae” value ([8]; Table 4, pH 7.4) was 100 µM, the “Minimal Inhibitory Concentration, S. aureus” value ([4]; Table 4, pH 7.4) was 50 µM and the “Minimal Inhibitory Concentration, A. Baumaannii” value ([9]; Table 4, pH 7.4) was 25 µM. The “Minimal Inhibitory Concentration, E. faecalis” value ([10]; Table 4, pH 7.4) was 50 µM, the “Minimal Inhibitory Concentration, A. fumigatus ATCC 26430” value ([5]; Table 10, pH 7.4) was 12.5 µM and the “Minimal Inhibitory Concentration, C. albicans ATCC 10231” value ([6]; Table 10, pH 7.4) was 3.125 µM. The “Minimal Inhibitory Concentration, C. neoformans ATCC 66031” value ([11]; Table 10, pH 7.4) was 1.56 µM.
`CCCCCCCCCCC(=O)N[C@@H](CCCCN)C(=O)N[C@@H](CC(C)C)C(=O)N[C@H](CC(C)C)C(=O)N[C@H](CC(C)C)C(=O)N[C@@H](CCCCN)C(=O)N[C@@H](CC(C)C)C(=O)N[C@@H](CC(C)C)C(=O)N[C@H](CC(C)C)C(=O)N[C@@H](CCCCN)C(=O)N[C@H](CC(C)C)C(=O)N[C@@H](CC(C)C)C(=O)N[C@@H](CCCCN)C(N)=O` [lipopeptide 10, (CH3—(CH2)9—CO—)-Lys-Leu-D-Leu-D-Leu-Lys-Leu-Leu-D-Leu-Lys-D-Leu-Leu-Lys-NH2] (Undecanoyl-KL[dL][dL]KLL[dL]K[dL]LK-NH2) was tested, and the “Minimal Inhibitory Concentration, P. Aeruginosa” value ([2]; ATCC 27853, pH 7.4) was 3.25 µM, the “Minimal Inhibitory Concentration, E. coli” value ([3]; ATCC 25922, pH 7.4) was 6.25 µM and the “Minimal Inhibitory Concentration, E. cloacae” value ([8]; ATCC 49141, pH 7.4) was 1.56 µM. For the same compound, the “Minimal Inhibitory Concentration, S. aureus” value ([4]; ATCC 6538, pH 7.4) was 3.125 µM, the “Minimal Inhibitory Concentration, A. Baumaannii” value ([9]; ATCC 19606, pH 7.4) was 3.125 µM and the “Minimal Inhibitory Concentration, E. faecalis” value ([10]; ATCC 29212, pH 7.4) was 3.125 µM. For the same compound, the “Minimal Inhibitory Concentration, S. aureus (MRSA)” value ([12]; ATCC 700698, pH 7.4) was 3.125 µM, the “activity against MRSA” value ([12]; in words, summary of Table 4) was “highly active” and the “Minimal Inhibitory Concentration, A. fumigatus ATCC 26430” value ([5]; ATCC 26430, pH 7.4) was 6.25 µM. For the same compound, the “Minimal Inhibitory Concentration, C. albicans ATCC 10231” value ([6]; ATCC 10231, pH 7.4) was 3.125 µM and the “Minimal Inhibitory Concentration, C. neoformans ATCC 66031” value ([11]; ATCC 66031, pH 7.4) was 1.56 µM.
With `CCCCCCCCCCCC(=O)N[C@H](CC(C)C)C(=O)N[C@@H](Cc1cnc[nH]1)C(=O)N[C@@H](Cc1cnc[nH]1)C(=O)N[C@H](CC(C)C)C(=O)N[C@H](CC(C)C)C(=O)N[C@@H](Cc1cnc[nH]1)C(=O)N[C@@H](Cc1cnc[nH]1)C(=O)N[C@H](CC(C)C)C(=O)N[C@H](CC(C)C)C(=O)N[C@@H](Cc1cnc[nH]1)C(=O)N[C@@H](Cc1cnc[nH]1)C(=O)N[C@H](CC(C)C)C(N)=O` [lipopeptide 26, (CH3-(CH2)10-CO-)-D-Leu-His-His-D-Leu-D-Leu-His-His-D-Leu-D-Leu-His-His-D-Leu-NH2] (Lauroyl-[dL]HH[dL][dL]HH[dL][dL]HH[dL]-NH2) the hemolytic activity ([1]; up to a concentration of 25 μM, human red blood cells (FIGS. 6-7)) was “do not exert hemolytic activity”.
